PubChem BioAssay (NCI)
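Values below derive from 48-hour exposures of cells grown in 96-well plates, with endpoints linearly interpolated between the two concentrations bracketing the appropriate inhibition level. The concentration for 50% growth inhibition is given as GI50. The concentration for full growth arrest is given as TGI.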

Legend:
Test in all cases: NCI anticancer screen, dose series, 48 h
SNB-19 CNS = tested on: SNB-19 CNS
SNB-75 CNS = tested on: SNB-75 CNS
T-47D breast = tested on: T-47D breast
MDA-N = tested on: MDA-N
OVCAR-5 ovarian = tested on: OVCAR-5 ovarian
NCI-H522 lung = tested on: NCI-H522 lung
KM12 colon = tested on: KM12 colon
SK-MEL-28 melanoma = tested on: SK-MEL-28 melanoma
HOP-92 NSCLC = tested on: HOP-92 NSCLC
U251 CNS = tested on: U251 CNS
MOLT-4 leukemia = tested on: MOLT-4 leukemia
OVCAR-8 ovarian = tested on: OVCAR-8 ovarian
UACC-257 melanoma = tested on: UACC-257 melanoma
HCT-116 colon = tested on: HCT-116 colon
MCF7 breast = tested on: MCF7 breast
BT-549 breast = tested on: BT-549 breast
UO-31 renal = tested on: UO-31 renal
SF-539 CNS = tested on: SF-539 CNS
HCT-15 colon = tested on: HCT-15 colon
NCI-H226 lung = tested on: NCI-H226 lung
PC-3 prostate = tested on: PC-3 prostate
RPMI-8226 leukemia = tested on: RPMI-8226 leukemia
CCRF-CEM leukemia = tested on: CCRF-CEM leukemia
K-562 leukemia = tested on: K-562 leukemia
OVCAR-4 ovarian = tested on: OVCAR-4 ovarian
EKVX NSCLC = tested on: EKVX NSCLC
NCI-H23 lung = tested on: NCI-H23 lung
COLO 205 colon = tested on: COLO 205 colon
HS 578T breast = tested on: HS 578T breast
ACHN renal = tested on: ACHN renal
DU-145 prostate = tested on: DU-145 prostate
HOP-62 NSCLC = tested on: HOP-62 NSCLC
IGROV1 ovarian = tested on: IGROV1 ovarian
CAKI-1 renal = tested on: CAKI-1 renal
MDA-MB-231 breast = tested on: MDA-MB-231 breast
M14 melanoma = tested on: M14 melanoma
SN12C renal = tested on: SN12C renal
SR leukemia = tested on: SR leukemia
SK-MEL-2 melanoma = tested on: SK-MEL-2 melanoma
SF-268 CNS = tested on: SF-268 CNS
SF-295 CNS = tested on: SF-295 CNS
NCI-H460 lung = tested on: NCI-H460 lung
MALME-3M melanoma = tested on: MALME-3M melanoma
LOX IMVI melanoma = tested on: LOX IMVI melanoma
TK-10 renal = tested on: TK-10 renal
RXF 393 renal = tested on: RXF 393 renal
A498 renal = tested on: A498 renal
SK-OV-3 ovarian = tested on: SK-OV-3 ovarian
A549 NSCLC = tested on: A549 NSCLC
SK-MEL-5 melanoma = tested on: SK-MEL-5 melanoma
786-0 renal = tested on: 786-0 renal
UACC-62 melanoma = tested on: UACC-62 melanoma
NCI/ADR-RES ovarian = tested on: NCI/ADR-RES ovarian
HT29 colon = tested on: HT29 colon
SW-620 colon = tested on: SW-620 colon
OVCAR-3 ovarian = tested on: OVCAR-3 ovarian
MDA-MB-435 = tested on: MDA-MB-435

SMILES: O=C=Nc1ccc(Cc2ccc(N=C=O)cc2)cc1 (tested in a mixture with another compound)
- GI50 (SNB-19 CNS): > 25 µg/mL
- TGI (SNB-19 CNS): > 25 µg/mL
- GI50 (SNB-75 CNS): > 25 µg/mL
- TGI (SNB-75 CNS): > 25 µg/mL
- GI50 (T-47D breast): > 25 µg/mL
- TGI (T-47D breast): > 25 µg/mL
- GI50 (MDA-N): > 25 µg/mL
- TGI (MDA-N): > 25 µg/mL
- GI50 (OVCAR-5 ovarian): > 25 µg/mL
- TGI (OVCAR-5 ovarian): > 25 µg/mL
- GI50 (NCI-H522 lung): > 25 µg/mL
- TGI (NCI-H522 lung): > 25 µg/mL
- GI50 (KM12 colon): > 25 µg/mL
- TGI (KM12 colon): > 25 µg/mL
- GI50 (SK-MEL-28 melanoma): > 25 µg/mL
- TGI (SK-MEL-28 melanoma): > 25 µg/mL
- GI50 (HOP-92 NSCLC): > 25 µg/mL
- TGI (HOP-92 NSCLC): > 25 µg/mL
- GI50 (U251 CNS): > 25 µg/mL
- TGI (U251 CNS): > 25 µg/mL
- GI50 (MOLT-4 leukemia): 1.33 µg/mL
- TGI (MOLT-4 leukemia): > 25 µg/mL
- GI50 (OVCAR-8 ovarian): > 25 µg/mL
- TGI (OVCAR-8 ovarian): > 25 µg/mL
- GI50 (UACC-257 melanoma): > 25 µg/mL
- TGI (UACC-257 melanoma): > 25 µg/mL
- GI50 (HCT-116 colon): > 25 µg/mL
- TGI (HCT-116 colon): > 25 µg/mL
- GI50 (MCF7 breast): > 25 µg/mL
- TGI (MCF7 breast): > 25 µg/mL
- GI50 (BT-549 breast): > 25 µg/mL
- TGI (BT-549 breast): > 25 µg/mL
- GI50 (UO-31 renal): > 25 µg/mL
- TGI (UO-31 renal): > 25 µg/mL
- GI50 (SF-539 CNS): > 25 µg/mL
- TGI (SF-539 CNS): > 25 µg/mL
- GI50 (HCT-15 colon): > 25 µg/mL
- TGI (HCT-15 colon): > 25 µg/mL
- GI50 (NCI-H226 lung): > 25 µg/mL
- TGI (NCI-H226 lung): > 25 µg/mL
- GI50 (PC-3 prostate): > 25 µg/mL
- TGI (PC-3 prostate): > 25 µg/mL
- GI50 (RPMI-8226 leukemia): > 25 µg/mL
- TGI (RPMI-8226 leukemia): > 25 µg/mL
- GI50 (CCRF-CEM leukemia): > 25 µg/mL
- TGI (CCRF-CEM leukemia): > 25 µg/mL
- GI50 (K-562 leukemia): 12.3 µg/mL
- TGI (K-562 leukemia): > 25 µg/mL
- GI50 (OVCAR-4 ovarian): > 25 µg/mL
- TGI (OVCAR-4 ovarian): > 25 µg/mL
- GI50 (EKVX NSCLC): > 25 µg/mL
- TGI (EKVX NSCLC): > 25 µg/mL
- GI50 (NCI-H23 lung): > 25 µg/mL
- TGI (NCI-H23 lung): > 25 µg/mL
- GI50 (COLO 205 colon): > 25 µg/mL
- TGI (COLO 205 colon): > 25 µg/mL
- GI50 (HS 578T breast): > 25 µg/mL
- TGI (HS 578T breast): > 25 µg/mL
- GI50 (ACHN renal): > 25 µg/mL
- TGI (ACHN renal): > 25 µg/mL
- GI50 (DU-145 prostate): > 25 µg/mL
- TGI (DU-145 prostate): > 25 µg/mL
- GI50 (HOP-62 NSCLC): > 25 µg/mL
- TGI (HOP-62 NSCLC): > 25 µg/mL
- GI50 (IGROV1 ovarian): > 25 µg/mL
- TGI (IGROV1 ovarian): > 25 µg/mL
- GI50 (CAKI-1 renal): > 25 µg/mL
- TGI (CAKI-1 renal): > 25 µg/mL
- GI50 (MDA-MB-231 breast): > 25 µg/mL
- TGI (MDA-MB-231 breast): > 25 µg/mL
- GI50 (M14 melanoma): > 25 µg/mL
- TGI (M14 melanoma): > 25 µg/mL
- GI50 (SN12C renal): > 25 µg/mL
- TGI (SN12C renal): > 25 µg/mL
- GI50 (SR leukemia): > 25 µg/mL
- TGI (SR leukemia): > 25 µg/mL
- GI50 (SK-MEL-2 melanoma): > 25 µg/mL
- TGI (SK-MEL-2 melanoma): > 25 µg/mL
- GI50 (SF-268 CNS): > 25 µg/mL
- TGI (SF-268 CNS): > 25 µg/mL
- GI50 (SF-295 CNS): > 25 µg/mL
- TGI (SF-295 CNS): > 25 µg/mL
- GI50 (NCI-H460 lung): > 25 µg/mL
- TGI (NCI-H460 lung): > 25 µg/mL
- GI50 (MALME-3M melanoma): > 25 µg/mL
- TGI (MALME-3M melanoma): > 25 µg/mL
- GI50 (LOX IMVI melanoma): > 25 µg/mL
- TGI (LOX IMVI melanoma): > 25 µg/mL
- GI50 (TK-10 renal): > 25 µg/mL
- TGI (TK-10 renal): > 25 µg/mL
- GI50 (RXF 393 renal): > 25 µg/mL
- TGI (RXF 393 renal): > 25 µg/mL
- GI50 (A498 renal): > 25 µg/mL
- TGI (A498 renal): > 25 µg/mL
- GI50 (SK-OV-3 ovarian): > 25 µg/mL
- TGI (SK-OV-3 ovarian): > 25 µg/mL
- GI50 (A549 NSCLC): > 25 µg/mL
- TGI (A549 NSCLC): > 25 µg/mL
- GI50 (SK-MEL-5 melanoma): > 25 µg/mL
- TGI (SK-MEL-5 melanoma): > 25 µg/mL
- GI50 (786-0 renal): > 25 µg/mL
- TGI (786-0 renal): > 25 µg/mL
- GI50 (UACC-62 melanoma): > 25 µg/mL
- TGI (UACC-62 melanoma): > 25 µg/mL
- GI50 (NCI/ADR-RES ovarian): > 25 µg/mL
- TGI (NCI/ADR-RES ovarian): > 25 µg/mL
- GI50 (HT29 colon): > 25 µg/mL
- TGI (HT29 colon): > 25 µg/mL
- GI50 (SW-620 colon): > 25 µg/mL
- TGI (SW-620 colon): > 25 µg/mL
- GI50 (OVCAR-3 ovarian): > 25 µg/mL
- TGI (OVCAR-3 ovarian): > 25 µg/mL
- GI50 (MDA-MB-435): > 25 µg/mL
- TGI (MDA-MB-435): > 25 µg/mL
